Measured values as given in patent publication US12365686B2, “Compound as porcupine inhibitor and use thereof” (JIANGSU KANION PHARMACEUTICAL CO., LTD., priority 2019, dated 2025).
Where a name gives a salt, the structure may show the parent alone.

Experiments:
[1] = system: STF reporter gene for WNT pathway (Porcupine of the Wnt signaling pathway); assay: Inhibitory activity on Super-Top-Flash (STF) reporter gene; type: cell-based; settings: HEK293 STF and L wnt3A cells 1:1, 24 hours, Bright-Glo
Experimental: 1. Assay of Inhibitory Activity on Super-Top-Flash (STF) Reporter Gene
HEK293 STF and L wnt3A cells were planted at a ratio of 1:1 in a white 96-well plate with 80 μL of cell suspension per well, which contained 20,000 HEK293 STF cells and 20,000 L wnt3A cells. The cell plate was placed in a carbon dioxide incubator for culture overnight.
The assay compound was serially diluted 5-fold with a discharge gun to the 8th concentration, that is, from 400 μM to 5.12 nM, in duplicate. 78 μL of medium was added to the middle plate, and then 2 μL of the serially diluted compound was transferred to each well of the middle plate according to the corresponding position. After mixing, 20 μL of the mixture was transferred to each well of the cell plate. The cell plate was placed in a carbon dioxide incubator for 24 hours.
100 μL of Promega Bright-Glo reagent was added to each well of the cell plate, and the cell plate was incubated at room temperature for 10 minutes to stabilize the luminescence signal. A multi-label analyzer was used to read results.
The original data of the multi-label analyzer was used for calculation, and the value of IC50 can be obtained by curve fitting. Table 1 provides data of the inhibitory activity of the compounds of the present disclosure on the Wnt signaling pathway.

Capan-2 cells = assay: Anti-proliferative activity on Capan-2 cells; type: cell-based; settings: Homo sapiens, Capan-2, 120 h; 5 days, CellTiter-Glo
Experimental: 2. Assay of Anti-Proliferative Activity on Capan-2 Cells
Capan-2 cells were planted in a white 96-well plate with 80 μL of cell suspension per well, which contained 5000 Capan-2 cells. The cell plate was placed in a carbon dioxide incubator for culture overnight.
The assay compound was serially diluted 3-fold with a discharge gun to the 9th concentration, that is, from 200 μM to 30 nM, in duplicate. 78 μL of medium was added to the middle plate, and then 2 μL of the serially diluted compound was transferred to each well of the middle plate according to the corresponding position. After mixing, 20 μL of the mixture was transferred to each well of the cell plate. The cell plate was incubated in a carbon dioxide incubator for 5 days. Another cell plate was prepared, and read on the day of drug addition. The signal value was used as the maximum value (The value of Max in the equation below) in data analysis. 25 μL of chemiluminescence detection reagent for cell viability was added to each well of this cell plate, and this cell plate was incubated at room temperature for 10 minutes to stabilize the luminescence signal. A multi-label analyzer was used to read results.
After the cell plate was cultured for 5 days, 25 μL of Promega CellTiter-Glo reagent was added to each well of the cell plate. The cell plate was incubated at room temperature for 10 minutes to stabilize the luminescence signal. A multi-label analyzer was used to read results.
The value of IC50 can be obtained by curve fitting. Table 2 provides the inhibitory activity of the compounds of the present disclosure on Capan-2 cell proliferation.

[2] = system: human pancreatic cancer Capan-2 xenograft tumor; assay: In vivo drug efficacy on Capan-2 transplanted tumor in nude mice; settings: BID, Capan-2 Xenograft model
Experimental: 3. Assay of In Vivo Drug Efficacy on Capan-2 Transplanted Tumor in Nude Mice
Capan-2 cells were cultured in McCoy's 5A medium, containing 10% fetal bovine serum FBS, in a 37° C. incubator with 5% CO2. Tumor cells were collected after passaging and growing to a suitable concentration and during the logarithmic growth phase. The cells resuspended in McCoy's 5A medium were counted and the cell suspension was adjusted to a concentration of 2×10^7/mL for inoculation.
Establishment of human pancreatic cancer Capan-2 xenograft tumor. Cells were collected and the concentration was adjusted to 2×10^7 (resuspend with McCoy's 5A medium to a cell suspension containing 50% Martigel). Under aseptic conditions, 0.1 mL of tumor cells was injected subcutaneously into the right back of the mouse, and the number of cells inoculated per mouse was 2×10^6. After the tumor was grown to a certain size, digital vernier calipers was used to measure the length (a) and width (b) of the tumor, and the tumor volume was calculated. The calculation formula of tumor volume (TV) was: TV=a×b^2/2.
Capan-2 tumor cells were inoculated. When the tumor was grown to about 150 cubic millimeters, mice were divided into groups with 6 mice in each group. The day of grouping was regarded as day 0, and the drug was administered on the day of grouping. During the assay, the animal's body weight and tumor size were measured twice a week, and the animal's clinical symptoms were observed and recorded every day. For each administration, the most recently weighed animal body weight was referred to.
The evaluation index of anti-tumor activity is relative tumor proliferation rate T/C (%), wherein T/C (%)>40% means ineffective, and T/C (%)<40% and statistically P<0.05 means effective. The calculation formula of T/C (%) is: T/C (%)=(TRTV/CRTV)×100%. TRTV is relative tumor volume of the treatment group, and CRTV is relative tumor volume of the negative control group. TGI (%)^b tumor inhibition rate=(average tumor volume or weight of negative control group-average tumor volume or weight of administration group)/average tumor volume or weight of negative control group×100%. TGI (%)^a=[(1−(average tumor volume of a certain administration group at the time of measurement-average tumor volume of the administration group at the beginning of the administration))/(average tumor volume of vehicle control group at the time of measurement-average tumor volume of the vehicle control group at the beginning of the administration)]×100%.

[3] = Pharmacokinetic evaluation of compounds in mice; type: in vivo; settings: mouse, plasma, male CD-1 mice; for clearance / bioavailability / half-life / Vd: IV 0.5 mg/kg; for bioavailability / AUC(0-t): PO 2.5 mg/kg; for half-life: read-out: T1/2 IV (converted); for Vd: read-out: Vdss; for AUC(0-t): read-out: AUC0-last PO; for Cmax: single dose, route not stated (IV 0.5 mg/kg, PO 2.5 mg/kg)
Experimental: Assay 4: Pharmacokinetic Evaluation of Compounds
Assay purpose: Pharmacokinetics of compounds in […] mice was assayed.
CD-1 mice (male, 7-9 weeks old, Shanghai Slack)
The pharmacokinetic characteristics of rodents after intravenous (IV) and oral (PO) administration of compounds were assayed by standard protocols. In the assay, mice were given a single intravenous injection and oral administration. The vehicle for intravenous injection was water. The oral vehicle was 0.5% hypromellose. Four male CD-1 mice were used in this project. Two mice were administered intravenously at a dose of 0.5 mg/kg, and plasma samples were collected at 0 h (before administration) and 0.083, 0.25, 0.5, 1, 2, 4, 8, and 24 h after administration. The other two mice were orally administered by gavage at a dose of 2.5 mg/kg, and plasma samples were collected at 0 h (before administration) and 0.25, 0.5, 1, 2, 4, 8, and 24 h after administration. Whole blood samples within 24 hours were collected, and centrifuged at 3000 g for 15 minutes. The supernatant was separated to obtain a plasma sample, and protein was precipitated by adding 4 times volume of acetonitrile solution containing internal standard. The mixture was centrifuged to obtain a supernatant, and an equal volume of water was added to the obtained supernatant. The mixture was then centrifuged to obtain a supernatant for injection. The blood drug concentration was quantitatively analyzed by LC-MS/MS analysis method, and pharmacokinetic parameters were calculated, such as peak concentration (Cmax), clearance rate (CL), half-life (T1/2), […] (Vdss), area under the drug-time curve (AUC0-last), and bioavailability (F), etc.
The assay results are shown in Table 4: The compounds of the present disclosure have good pharmacokinetic properties.

Cc1cc(-c2ncc(CNc3nccn4c(-c5ccccc5)cnc34)cc2C)ccn1 [Compound 1]
IC50 [1]: 0.12 nM | IC50 (Capan-2 cells): 0.71 nM | T/C % ([2]; 5 mg/Kg, 31 days): 21.58% | TGI % ([2]; 5 mg/Kg, 31 days): 96.7% | clearance [3]: 5.05 mL/min/kg | bioavailability [3]: 76.3% | half-life [3]: 2.23 h | Vd [3]: 0.633 L/kg | AUC(0-t) [3]: 16.5 µM·h | Cmax [3]: 3030 nM

Cc1cc(-c2ncc(CNc3nccn4c(-c5cc(F)cc(F)c5)cnc34)cc2C)ccn1 [Compound 30 (hydrochloride)]
IC50 [1]: 0.52 nM | IC50 (Capan-2 cells): 0.71 nM | T/C % ([2]; 2.5 mg/Kg): 40.18% | TGI % ([2]; 2.5 mg/Kg): 66.67% | T/C % ([2]; 5 mg/Kg, 31 days): 25.31% | TGI % ([2]; 5 mg/Kg, 31 days): 84.93% | clearance [3]: 5.75 mL/min/kg | bioavailability [3]: 98.8% | half-life [3]: 2.5 h | Vd [3]: 0.666 L/kg | AUC(0-t) [3]: 16.2 µM·h | Cmax [3]: 2580 nM
